{"source": "the supplement of paper PMC10307832", "experiment_in_all_cases": "relative viability (nuclei count vs DMSO), 5 days (fraction); higher = more cells survive", "key": {"Avagacestat + Pictilisib": {"compound": "NC(=O)[C@@H](CCC(F)(F)F)N(Cc1ccc(-c2ncon2)cc1F)S(=O)(=O)c1ccc(Cl)cc1 [Avagacestat] + CS(=O)(=O)N1CCN(Cc2cc3nc(-c4cccc5[nH]ncc45)nc(N4CCOCC4)c3s2)CC1 [Pictilisib] (partner 1 µM)", "outline": "(§1)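 A single step with final 0.05% Triton X-100, 1% formaldehyde and 1 ug/ml Hoechst fixed the cells and stained nuclei 5 days after treatment. Lung cancer cell lines in 1536-well plates had been treated by pin tool the day after seeding with one drug alone or a fixed anchor-drug dose plus five library-drug doses (not always all listed) in √10 steps, and nuclei were counted on 4× images. Relative viability is the ratio of nuclei in treated wells to nuclei in vehicle wells, taken as the median of duplicate plates.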"}, "Avagacestat + Decitabine": {"compound": "NC(=O)[C@@H](CCC(F)(F)F)N(Cc1ccc(-c2ncon2)cc1F)S(=O)(=O)c1ccc(Cl)cc1 [Avagacestat] + Nc1ncn([C@H]2C[C@H](O)[C@@H](CO)O2)c(=O)n1 [Decitabine] (partner 2 µM)", "outline": "as §1"}, "Avagacestat + Crizotinib": {"compound": "NC(=O)[C@@H](CCC(F)(F)F)N(Cc1ccc(-c2ncon2)cc1F)S(=O)(=O)c1ccc(Cl)cc1 [Avagacestat] + C[C@@H](Oc1cc(-c2cnn(C3CCNCC3)c2)cnc1N)c1c(Cl)ccc(F)c1Cl [Crizotinib] (partner 1 µM)", "outline": "as §1"}, "Avagacestat + Alpelisib": {"compound": "NC(=O)[C@@H](CCC(F)(F)F)N(Cc1ccc(-c2ncon2)cc1F)S(=O)(=O)c1ccc(Cl)cc1 [Avagacestat] + Cc1nc(NC(=O)N2CCC[C@H]2C(N)=O)sc1-c1ccnc(C(C)(C)C(F)(F)F)c1 [Alpelisib] (partner 2 µM)", "outline": "as §1"}, "Avagacestat + Phenformin": {"compound": "NC(=O)[C@@H](CCC(F)(F)F)N(Cc1ccc(-c2ncon2)cc1F)S(=O)(=O)c1ccc(Cl)cc1 [Avagacestat] + N=C(N)NC(=N)NCCc1ccccc1 [Phenformin] (partner 250 µM)", "outline": "as §1"}, "Avagacestat + Lapatinib": {"compound": "NC(=O)[C@@H](CCC(F)(F)F)N(Cc1ccc(-c2ncon2)cc1F)S(=O)(=O)c1ccc(Cl)cc1 [Avagacestat] + CS(=O)(=O)CCNCc1ccc(-c2ccc3ncnc(Nc4ccc(OCc5cccc(F)c5)c(Cl)c4)c3c2)o1 [Lapatinib] (partner 2 µM)", "outline": "as §1"}, "Avagacestat + Olaparib": {"compound": "NC(=O)[C@@H](CCC(F)(F)F)N(Cc1ccc(-c2ncon2)cc1F)S(=O)(=O)c1ccc(Cl)cc1 [Avagacestat] + O=C(c1cc(Cc2n[nH]c(=O)c3ccccc23)ccc1F)N1CCN(C(=O)C2CC2)CC1 [Olaparib] (partner 8 µM)", "outline": "as §1"}, "Avagacestat + Navitoclax": {"compound": "NC(=O)[C@@H](CCC(F)(F)F)N(Cc1ccc(-c2ncon2)cc1F)S(=O)(=O)c1ccc(Cl)cc1 [Avagacestat] + CC1(C)CCC(c2ccc(Cl)cc2)=C(CN2CCN(c3ccc(C(=O)NS(=O)(=O)c4ccc(N[C@H](CCN5CCOCC5)CSc5ccccc5)c(S(=O)(=O)C(F)(F)F)c4)cc3)CC2)C1 [Navitoclax] (partner 0.5 µM)", "outline": "as §1"}, "Avagacestat + Foretinib": {"compound": "NC(=O)[C@@H](CCC(F)(F)F)N(Cc1ccc(-c2ncon2)cc1F)S(=O)(=O)c1ccc(Cl)cc1 [Avagacestat] + COc1cc2c(Oc3ccc(NC(=O)C4(C(=O)Nc5ccc(F)cc5)CC4)cc3F)ccnc2cc1OCCCN1CCOCC1 [Foretinib] (partner 0.25 µM)", "outline": "as §1"}, "Avagacestat + Linsitinib": {"compound": "NC(=O)[C@@H](CCC(F)(F)F)N(Cc1ccc(-c2ncon2)cc1F)S(=O)(=O)c1ccc(Cl)cc1 [Avagacestat] + C[C@]1(O)C[C@@H](c2nc(-c3ccc4ccc(-c5ccccc5)nc4c3)c3c(N)nccn32)C1 [Linsitinib] (partner 1 µM)", "outline": "as §1"}, "Avagacestat": {"compound": "NC(=O)[C@@H](CCC(F)(F)F)N(Cc1ccc(-c2ncon2)cc1F)S(=O)(=O)c1ccc(Cl)cc1 [Avagacestat]", "outline": "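Viability is treated-well nuclei as a fraction of vehicle-well nuclei, reported as the median across plates. Before counting, lung cancer cell lines were kept overnight at 37 °C in 1536-well plates, pinned with five √10-spaced library-drug doses on vehicle-anchored plates, and left 5 days without medium change, then fixed, permeabilised and Hoechst-stained in one step, imaged at 4× and counted by MetaXpress. A plate passed only if control CV was below 25% and at least one doubling occurred.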"}}, "data": [{"cell line": "A549", "values": [{"measurement": "relative viability", "setting": "Avagacestat + Pictilisib; first compound 0.08 µM", "result": 0.795}, {"measurement": "relative viability", "setting": "Avagacestat + Pictilisib; first compound 0.253 µM", "result": 0.632}, {"measurement": "relative viability", "setting": "Avagacestat + Pictilisib; first compound 0.8 µM", "result": 0.458}, {"measurement": "relative viability", "setting": "Avagacestat + Pictilisib; first compound 2.53 µM", "result": 0.462}, {"measurement": "relative viability", "setting": "Avagacestat + Pictilisib; first compound 8 µM", "result": 0.403}, {"measurement": "relative viability", "setting": "Avagacestat + Decitabine; first compound 0.08 µM", "result": 0.331}, {"measurement": "relative viability", "setting": "Avagacestat + Decitabine; first compound 0.253 µM", "result": 0.254}, {"measurement": "relative viability", "setting": "Avagacestat + Decitabine; first compound 0.8 µM", "result": 0.296}, {"measurement": "relative viability", "setting": "Avagacestat + Decitabine; first compound 2.53 µM", "result": 0.31}, {"measurement": "relative viability", "setting": "Avagacestat + Decitabine; first compound 8 µM", "result": 0.259}, {"measurement": "relative viability", "setting": "Avagacestat + Crizotinib; first compound 0.08 µM", "result": 1.27}, {"measurement": "relative viability", "setting": "Avagacestat + Crizotinib; first compound 0.253 µM", "result": 1.26}, {"measurement": "relative viability", "setting": "Avagacestat + Crizotinib; first compound 0.8 µM", "result": 0.771}, {"measurement": "relative viability", "setting": "Avagacestat + Crizotinib; first compound 2.53 µM", "result": 0.808}, {"measurement": "relative viability", "setting": "Avagacestat + Crizotinib; first compound 8 µM", "result": 0.623}, {"measurement": "relative viability", "setting": "Avagacestat + Alpelisib; first compound 0.08 µM", "result": 1.02}, {"measurement": "relative viability", "setting": "Avagacestat + Alpelisib; first compound 0.253 µM", "result": 0.99}, {"measurement": "relative viability", "setting": "Avagacestat + Alpelisib; first compound 0.8 µM", "result": 0.694}, {"measurement": "relative viability", "setting": "Avagacestat + Alpelisib; first compound 2.53 µM", "result": 0.673}, {"measurement": "relative viability", "setting": "Avagacestat + Alpelisib; first compound 8 µM", "result": 0.771}, {"measurement": "relative viability", "setting": "Avagacestat + Phenformin; first compound 0.08 µM", "result": 0.276}, {"measurement": "relative viability", "setting": "Avagacestat + Phenformin; first compound 0.253 µM", "result": 0.218}, {"measurement": "relative viability", "setting": "Avagacestat + Phenformin; first compound 0.8 µM", "result": 0.181}, {"measurement": "relative viability", "setting": "Avagacestat + Phenformin; first compound 2.53 µM", "result": 0.226}, {"measurement": "relative viability", "setting": "Avagacestat + Phenformin; first compound 8 µM", "result": 0.538}, {"measurement": "relative viability", "setting": "Avagacestat + Lapatinib; first compound 0.08 µM", "result": 1.58}, {"measurement": "relative viability", "setting": "Avagacestat + Lapatinib; first compound 0.253 µM", "result": 0.977}, {"measurement": "relative viability", "setting": "Avagacestat + Lapatinib; first compound 0.8 µM", "result": 1.09}, {"measurement": "relative viability", "setting": "Avagacestat + Lapatinib; first compound 2.53 µM", "result": 0.939}, {"measurement": "relative viability", "setting": "Avagacestat + Lapatinib; first compound 8 µM", "result": 1.11}, {"measurement": "relative viability", "setting": "Avagacestat + Olaparib; first compound 0.08 µM", "result": 0.465}, {"measurement": "relative viability", "setting": "Avagacestat + Olaparib; first compound 0.253 µM", "result": 0.301}, {"measurement": "relative viability", "setting": "Avagacestat + Olaparib; first compound 0.8 µM", "result": 0.622}, {"measurement": "relative viability", "setting": "Avagacestat + Olaparib; first compound 2.53 µM", "result": 0.265}, {"measurement": "relative viability", "setting": "Avagacestat + Olaparib; first compound 8 µM", "result": 0.34}, {"measurement": "relative viability", "setting": "Avagacestat + Navitoclax; first compound 0.08 µM", "result": 1.64}, {"measurement": "relative viability", "setting": "Avagacestat + Navitoclax; first compound 0.253 µM", "result": 1.65}, {"measurement": "relative viability", "setting": "Avagacestat + Navitoclax; first compound 0.8 µM", "result": 1.27}, {"measurement": "relative viability", "setting": "Avagacestat + Navitoclax; first compound 2.53 µM", "result": 1.26}, {"measurement": "relative viability", "setting": "Avagacestat + Navitoclax; first compound 8 µM", "result": 1.25}, {"measurement": "relative viability", "setting": "Avagacestat + Foretinib; first compound 0.08 µM", "result": 1.01}, {"measurement": "relative viability", "setting": "Avagacestat + Foretinib; first compound 0.253 µM", "result": 1.15}, {"measurement": "relative viability", "setting": "Avagacestat + Foretinib; first compound 0.8 µM", "result": 1.01}, {"measurement": "relative viability", "setting": "Avagacestat + Foretinib; first compound 2.53 µM", "result": 1.01}, {"measurement": "relative viability", "setting": "Avagacestat + Foretinib; first compound 8 µM", "result": 0.878}, {"measurement": "relative viability", "setting": "Avagacestat + Linsitinib; first compound 0.08 µM", "result": 0.826}, {"measurement": "relative viability", "setting": "Avagacestat + Linsitinib; first compound 0.253 µM", "result": 0.582}, {"measurement": "relative viability", "setting": "Avagacestat + Linsitinib; first compound 0.8 µM", "result": 0.58}, {"measurement": "relative viability", "setting": "Avagacestat + Linsitinib; first compound 2.53 µM", "result": 0.571}, {"measurement": "relative viability", "setting": "Avagacestat + Linsitinib; first compound 8 µM", "result": 0.459}, {"measurement": "relative viability", "setting": "Avagacestat; 0.08 µM", "result": 1.1}, {"measurement": "relative viability", "setting": "Avagacestat; 0.253 µM", "result": 1.37}, {"measurement": "relative viability", "setting": "Avagacestat; 0.8 µM", "result": 1.15}, {"measurement": "relative viability", "setting": "Avagacestat; 2.53 µM", "result": 1.03}, {"measurement": "relative viability", "setting": "Avagacestat; 8 µM", "result": 0.993}]}]}
